Reference: patent US10058525B2, “Application of chlorogenic acid in preparing medicines for treating lupus erythematosus” (SICHUAN JIUZHANG BIOLOGICAL SCIENCE AND TECHNOLOGY CO., LTD., priority 2015, dated 2018)

Tests used:
Assay type in all cases: in vivo, BALB/c mice
ANA = assay: Serologic detection of ANA by immunofluorescence on HEp-2 cell sheets, serum of UV + LPS lupus model mice; details: chlorogenic acid high dose, ×200
Procedure: The back of mice was shaved and acutely exposed to Ultraviolet of 2 h/d*3 d, with a distance of 30 cm. After exposure to UV, 2.5 mg/kg of LPS was administrated once by ip, and after 24 h, the model was successfully established; the mice in the normal control group received normal saline via ip. 24 h after injection of LPS (ip), medicines were given to the model mice by intragastric administration. Chlorogenic acid test groups received high, middle, and low doses of medicines, by intragastric administration at a respective dosage of 10 mg/kg*d, 20 mg/kg*d, and 40 mg/kg*d. The positive control group A received 2 mg/kg*d of artesunate by stomach perfusion, while the positive control group B received 1 mg/kg*d of prednisone by stomach perfusion. Mice in the model and normal control group all received 0.4 ml/mouse normal saline by gavage. After 15 days of administration, animals in each group were taken blood by separating eyeballs on days 14, 21, 28, and after cultured in water bath at 37° C. for 1 h, the blood sample was centrifugated at 2000 r/min for 5 min, to draw serum for use. On day 21, after blood collection, animals were sacrificed by dislocation, followed by collection of liver and kidney, and they were placed in fixative solutions of electron microscope and light microscrope, respectively. Serum of mice was diluted at 1:100 with special buffer solution of Shenzhen Hengjia, and then 200 μL of diluted serum was respectively added to the reactive tank with corresponding number, cultured in the incubator at 37° C. for 30 min, and washed with the buffer solution four times, 2 min for each time; 200 μL of diluted biotin goat anti-mouse IgG (1:100) was added, cultured in the incubator at 37° C. for 30 min, and then washed with the buffer solution four times, 2 min for each time; 100 μL of diluted HRP-avidin (1:100) was added, cultured in the incubator at 37° C. for 30 min, and then washed as mentioned-above; reactive solutions A and B were added till appearance of positive bands, then washed with the buffer solution. Compared with the standard bands of ENA polypeptide antibody spectrum in the same kit, if the positive bands appeared at 28/29,13.5 ku polypeptide; 15,16.5,38 kupolypeptide; 52 kupolypeptide and 47/48,45 kupolypeptide, that can be determined as anti-Sm, anti-Rib, anti-ssA, and anti-ssB positive antibody. Serum was diluted with PBS at 1:40, then 20-30 μL of diluted serum was dropped into the scrobiculus of HEp-2 cell sheets, each cell sheet for each group. In the process of dropping serum, it should be noted that the surface of cell sheet can not be touched. After addition of serum, cell sheet was placed in wet box and kept for 30 min at room temperature (25° C.). […]

[1] = system: ENA polypeptide antibodies (anti-Sm, anti-Rib, anti-ssA, anti-ssB); assay: Serologic detection of ENA polypeptide antibodies by immunoblotting in serum of UV + LPS lupus model mice; design: key to Anti-Rib: (+): positive; (−): negative; key to Anti-Sm / Anti-ssA / Anti-ssB: (+): positive; (−): negative; (++++): intenseintensity; (+++): stronger fluorescent intensity; details: for Anti-Rib / Anti-Sm / Anti-ssA / Anti-ssB: intragastric; for ENA polypeptide antibodies found positive (FIG. 1): treated 14 days
Procedure: The back of mice was shaved and acutely exposed to Ultraviolet of 2 h/d*3 d, with a distance of 30 cm. After exposure to UV, 2.5 mg/kg of LPS was administrated once by ip, and after 24 h, the model was successfully established; the mice in the normal control group received normal saline via ip. 24 h after injection of LPS (ip), medicines were given to the model mice by intragastric administration. Chlorogenic acid test groups received high, middle, and low doses of medicines, by intragastric administration at a respective dosage of 10 mg/kg*d, 20 mg/kg*d, and 40 mg/kg*d. The positive control group A received 2 mg/kg*d of artesunate by stomach perfusion, while the positive control group B received 1 mg/kg*d of prednisone by stomach perfusion. Mice in the model and normal control group all received 0.4 ml/mouse normal saline by gavage. After 15 days of administration, animals in each group were taken blood by separating eyeballs on days 14, 21, 28, and after cultured in water bath at 37° C. for 1 h, the blood sample was centrifugated at 2000 r/min for 5 min, to draw serum for use. On day 21, after blood collection, animals were sacrificed by dislocation, followed by collection of liver and kidney, and they were placed in fixative solutions of electron microscope and light microscrope, respectively. Serum of mice was diluted at 1:100 with special buffer solution of Shenzhen Hengjia, and then 200 μL of diluted serum was respectively added to the reactive tank with corresponding number, cultured in the incubator at 37° C. for 30 min, and washed with the buffer solution four times, 2 min for each time; 200 μL of diluted biotin goat anti-mouse IgG (1:100) was added, cultured in the incubator at 37° C. for 30 min, and then washed with the buffer solution four times, 2 min for each time; 100 μL of diluted HRP-avidin (1:100) was added, cultured in the incubator at 37° C. for 30 min, and then washed as mentioned-above; reactive solutions A and B were added till appearance of positive bands, then washed with the buffer solution. Compared with the standard bands of ENA polypeptide antibody spectrum in the same kit, if the positive bands appeared at 28/29,13.5 ku polypeptide; 15,16.5,38 kupolypeptide; 52 kupolypeptide and 47/48,45 kupolypeptide, that can be determined as anti-Sm, anti-Rib, anti-ssA, and anti-ssB positive antibody. Serum was diluted with PBS at 1:40, then 20-30 μL of diluted serum was dropped into the scrobiculus of HEp-2 cell sheets, each cell sheet for each group. In the process of dropping serum, it should be noted that the surface of cell sheet can not be touched. After addition of serum, cell sheet was placed in wet box and kept for 30 min at room temperature (25° C.). After 30 min, the cell sheet was taken out, and serum was carefully washed out with PBS, then carefully washed twice with PBS, 5 min for each time; after washing, the remained PBS was removed by special absorbent paper of […] company (In this process, it should be noted that becoming dry of cell substrates will affect the results). 20-30 μL of diluted (PBS, 1:100) FITC goat anti-mouse IgG was added by dropping, and then incubated in wet box at room temperature for 30 min. After washing with PBS, steps were same to above. The remained PBS was removed by absorbent paper, and 1-2 drops of fluorescent mounting media were added to the cell sheet. The cover glass was mounted, observed under Olympus BH-2 universal microscope, and then photographed.

[2] = system: lupus erythematosus model mice (kidney, liver); assay: Triple staining (silver staining) of kidney and liver sections under light microscope, lupus model mice
Procedure: The back of mice was shaved and acutely exposed to Ultraviolet of 2 h/d*3 d, with a distance of 30 cm. After exposure to UV, 2.5 mg/kg of LPS was administrated once by ip, and after 24 h, the model was successfully established; the mice in the normal control group received normal saline via ip. 24 h after injection of LPS (ip), medicines were given to the model mice by intragastric administration. Chlorogenic acid test groups received high, middle, and low doses of medicines, by intragastric administration at a respective dosage of 10 mg/kg*d, 20 mg/kg*d, and 40 mg/kg*d. The positive control group A received 2 mg/kg*d of artesunate by stomach perfusion, while the positive control group B received 1 mg/kg*d of prednisone by stomach perfusion. Mice in the model and normal control group all received 0.4 ml/mouse normal saline by gavage. After 15 days of administration, animals in each group were taken blood by separating eyeballs on days 14, 21, 28, and after cultured in water bath at 37° C. for 1 h, the blood sample was centrifugated at 2000 r/min for 5 min, to draw serum for use. On day 21, after blood collection, animals were sacrificed by dislocation, followed by collection of liver and kidney, and they were placed in fixative solutions of electron microscope and light microscrope, respectively.
[…] The thickness of slice is 3 μm, and at beginning of staining, wax was routinely deprived to water. After oxidation with 0.5% periodic acid, the slice was macerated in hexamine silver fluid for about 2 h (constant temperature 58° C.), washed with distilled water, dyed with hematoxylin for 1 min. After washing with water, the slice was dyed by dropping the ponceau staining solution for 5 min, differentiated with 70% ethanol, dehydrated with gradient ethanol, cleared with xylene, and sealed with neutral gum.

[3] = day 14, chlorogenic acid high dose
[4] = day 14, chlorogenic acid low dose
[5] = day 14, chlorogenic acid middle dose
[6] = day 21, chlorogenic acid high dose
[7] = day 21, chlorogenic acid low dose
[8] = day 21, chlorogenic acid middle dose
[9] = day 28, chlorogenic acid high dose
[10] = day 28, chlorogenic acid low dose
[11] = day 28, chlorogenic acid middle dose
[12] = chlorogenic acid group administrated for 28 days

**Q.** Which “fluorescence intensity of ANA (FIG. 2)” value (ANA; 14 days) does the source give for O=C(/C=C/c1ccc(O)c(O)c1)O[C@@H]1C[C@](O)(C(=O)O)C[C@@H](O)[C@H]1O [Chlorogenic acid, 3-O-caffeoylquinic acid] here?
**A.** decreases

**Q.** What about the “fluorescence intensity of ANA (FIG. 3)” value (ANA; 21 days) of the same compound?
**A.** decreases

**Q.** And the “fluorescence intensity of ANA (FIG. 4)” value (ANA; 28 days)?
**A.** decreases

**Q.** And the Anti-Rib [1, 3]?
**A.** (+)

**Q.** What about the Anti-Sm [1, 3] of the same compound?
**A.** (+)

**Q.** What about the Anti-ssA [1, 3] of the same compound?
**A.** (+)

**Q.** What about the Anti-ssB [1, 3] of the same compound?
**A.** (+)

**Q.** What about the Anti-Rib [1, 4] of the same compound?
**A.** (+)

**Q.** What about the Anti-Sm [1, 4] of the same compound?
**A.** (+)

**Q.** And the Anti-ssA [1, 4]?
**A.** (+)

**Q.** And the Anti-ssB [1, 4]?
**A.** (+)

**Q.** And the Anti-Rib [1, 5]?
**A.** (+)

**Q.** And the Anti-Sm [1, 5]?
**A.** (+)

**Q.** What about the Anti-ssA [1, 5] of the same compound?
**A.** (+)

**Q.** What about the Anti-ssB [1, 5] of the same compound?
**A.** (+)

**Q.** And the Anti-Rib [1, 6]?
**A.** (+)

**Q.** And the Anti-Sm [1, 6]?
**A.** (+)

**Q.** And the Anti-ssA [1, 6]?
**A.** (+)

**Q.** What about the Anti-ssB [1, 6] of the same compound?
**A.** (+)

**Q.** What about the Anti-Rib [1, 7] of the same compound?
**A.** (+)

**Q.** What about the Anti-Sm [1, 7] of the same compound?
**A.** (+)

**Q.** And the Anti-ssA [1, 7]?
**A.** (+)

**Q.** What about the Anti-ssB [1, 7] of the same compound?
**A.** (+)

**Q.** What about the Anti-Rib [1, 8] of the same compound?
**A.** (+)

**Q.** What about the Anti-Sm [1, 8] of the same compound?
**A.** (+)

**Q.** What about the Anti-ssA [1, 8] of the same compound?
**A.** (+)

**Q.** What about the Anti-ssB [1, 8] of the same compound?
**A.** (+)

**Q.** What about the Anti-Rib [1, 9] of the same compound?
**A.** (−)

**Q.** What about the Anti-Sm [1, 9] of the same compound?
**A.** (+)

**Q.** What about the Anti-ssA [1, 9] of the same compound?
**A.** (−)

**Q.** What about the Anti-ssB [1, 9] of the same compound?
**A.** (−)

**Q.** And the Anti-Rib [1, 10]?
**A.** (+)

**Q.** What about the Anti-Sm [1, 10] of the same compound?
**A.** (+)

**Q.** And the Anti-ssA [1, 10]?
**A.** (+)

**Q.** And the Anti-ssB [1, 10]?
**A.** (+)

**Q.** And the Anti-Rib [1, 11]?
**A.** (−)

**Q.** What about the Anti-Sm [1, 11] of the same compound?
**A.** (+)

**Q.** What about the Anti-ssA [1, 11] of the same compound?
**A.** (+)

**Q.** What about the Anti-ssB [1, 11] of the same compound?
**A.** (+)

**Q.** What about the “ENA polypeptide antibodies found positive (FIG. 1)” value ([1]; high dose of chlorogenic acid) of the same compound?
**A.** anti-Sm, anti-ssA and anti-ssB bodies are positive

**Q.** And the “ENA polypeptide antibodies found positive (FIG. 1)” value ([1]; low dose of chlorogenic acid)?
**A.** anti-Sm, anti-ssA and anti-ssB bodies are positive

**Q.** And the “ENA polypeptide antibodies found positive (FIG. 1)” value ([1]; middle dose of chlorogenic acid)?
**A.** anti-Sm, anti-Rib, anti-ssA and anti-ssB bodies are positive

**Q.** And the “staining of hepatic blood vessel basilar membrane” value [2, 12]?
**A.** somewhat recovered

**Q.** What about the “thickening degree of renal glomerular and tubular basilar membrane” value [2, 12] of the same compound?
**A.** reduced compared with normal mice

**Q.** What about the “basilar membrane of renal glomerulus and tubule, pathological section” value ([2]; chlorogenic acid, 21 days) of the same compound?
**A.** increased thickness compared with normal mice

**Q.** What about the “pathological section of kidney: conditions versus model group” value ([2]; chlorogenic acid, 21 days, especially high dose group) of the same compound?
**A.** better than the model group

**Q.** What about the “thickening of renal glomerulus and tubular basement membrane (FIG. 8)” value ([2]; high dose of chlorogenic acid, 28 days, ×50) of the same compound?
**A.** thickening degree of renal glomerulus and tubular basement membrane reduces
